SMILES strings stand for the structures.

This data set in a line: Waters ACQUITY UPLC BEH Shield RP18, 100 × 2.1 mm, 1.7 µm, 40 °C, 0.4 mL/min, estimated dead time 0.55 min; A: water + 0.1% formic acid; B: acetonitrile; gradient (min/%B) 0/2 10/18 15/28 22/40 32/67. Particulars: stereoisomer not certain.
Regarding `O=c1cc(-c2ccc(O)cc2)oc2c(C3OCC(O)C(O)C3O)c(O)c(C3OC(CO)C(O)C(O)C3O)c(O)c12` (configuration not stated), the LC retention time was 8.56 min.

For the compound `CC(=O)OC1CC(C)(C(=O)O)CC2C3=CC(=O)C4C5(C)CCC(OC6OC(C(=O)O)C(O)C(O)C6OC6OC(C(=O)O)C(O)C(O)C6O)C(C)(CO)C5CCC4(C)C3(C)CCC12C` (configuration not stated), the LC retention time is 17.8 min.

Take `COc1c(CC=C(C)C)c(O)cc2c1CC(c1ccc(O)c(CC=C(C)C)c1O)CO2` (configuration not stated): the LC retention time was 28.7 min.

On to `CC1(C(=O)O)CCC2(C)CCC3(C)C(=C2C1)C=CC1C2(C)CCC(OC4OC(C(=O)O)C(O)C(O)C4OC4OC(C(=O)O)C(O)C(O)C4O)C(C)(CO)C2CCC13C` (configuration not stated), for which the LC retention time is 22.3 min.

Regarding `COc1cc(O)c2c(=O)c(OC)c(-c3ccc(O)cc3)oc2c1`, the LC retention time is 15.1 min.

For `C=CC(C)(C)c1cc(C=CC(=O)c2ccc(O)cc2)c(OC)cc1O`, the LC retention time was 26.3 min.

As for `O=C1CC(c2ccc(OC3OC(CO)C(O)C(O)C3OC3OCC(O)(CO)C3O)cc2)Oc2cc(O)ccc21` (configuration not stated), the LC retention time was 10.2 min.

As to `COc1ccc(-c2coc3cc(OC4OC(CO)C(O)C(O)C4O)ccc3c2=O)cc1` (configuration not stated), the LC retention time is 12.3 min.

Consider `CC12CC(OC1=O)C1(C)CCC3(C)C(=CC(=O)C4C5(C)CCC(OC6OC(C(=O)O)C(O)C(O)C6OC6OC(C(=O)O)C(O)C(O)C6O)C(C)(C)C5CCC43C)C1C2` (configuration not stated), for which the LC retention time was 19.8 min.

In the case of `CC1(C(=O)O)CCC2(C)CCC3(C)C(=CC(=O)C4C5(C)CCC(OC6OC(C(=O)O)C(O)C(O)C6OC6OC(C(=O)O)C(O)C(O)C6O)C(C)(CO)C5CCC43C)C2C1` (configuration not stated), the LC retention time is 20.7 min.

For the compound `CC1(CO)CC(O)C2(C)CCC3(C)C(=CC(=O)C4C5(C)CCC(OC6OC(C(=O)O)C(O)C(O)C6OC6OC(C(=O)O)C(O)C(O)C6O)C(C)(C)C5CCC43C)C2C1` (configuration not stated), the LC retention time is 16.8 min.

With `CC(C)=CCc1cc(-c2oc3cc(O)cc(O)c3c(=O)c2O)ccc1O`, the LC retention time was 26.1 min.

Turning to `CC1(C(=O)OC2OC(CO)C(O)C(O)C2O)CCC2(C)CCC3(C)C(=CC(=O)C4C5(C)CCC(OC6OC(C(=O)O)C(O)C(O)C6OC6OC(C(=O)O)C(O)C(O)C6O)C(C)(C)C5CCC43C)C2C1` (configuration not stated), the LC retention time is 17.4 min.

On to `COc1ccc(-c2coc3cc(O)ccc3c2=O)cc1`, for which the LC retention time is 19 min.

Turning to `CC1(C)C=Cc2c(ccc(-c3coc4cc(O)cc(O)c4c3=O)c2O)O1`, the LC retention time was 26.9 min.

As for `COc1cc2oc(-c3ccc(O)c(CC=C(C)C)c3)c(O)c2cc1OC`, the LC retention time was 24.8 min.

As for `CC(C)=CCc1c(O)cc2oc(-c3ccc(O)cc3)c(O)c(=O)c2c1O`, the LC retention time was 28.1 min.

Consider `O=C(C=Cc1ccc(O)cc1)c1ccc(OC2OC(CO)C(O)C(O)C2O)cc1O` (configuration not stated), for which the LC retention time was 14.5 min.

For the compound `COc1cc(O)cc2oc(=O)c(-c3ccc(O)cc3O)cc12`, the LC retention time was 19.9 min.

On to `COc1ccc(-c2coc3cc(OC4OC(CO)C(O)C(O)C4OC4OCC(O)(CO)C4O)ccc3c2=O)cc1` (configuration not stated), for which the LC retention time was 12.2 min.

For the compound `O=C(O)CC(C(=O)O)c1ccc(O)cc1` (configuration not stated), the LC retention time is 4.34 min.

For `O=C(C=Cc1ccc(OC2OC(CO)C(O)C(O)C2O)cc1)c1ccc(O)cc1O` (configuration not stated), the LC retention time was 14.3 min.

As for `COc1c(CC=C(C)C)c(O)cc2oc(=O)c3c4ccc(O)cc4oc3c12`, the LC retention time is 27.2 min.

For `O=C(C=Cc1ccc(OC2OC(CO)C(O)C(O)C2OC2OCC(O)(CO)C2O)cc1)c1ccc(O)cc1O` (configuration not stated), the LC retention time is 14 min.

For the compound `CC(C)=CCc1cc(-c2cc(=O)c3c(O)cc(O)cc3o2)cc(O)c1O`, the LC retention time was 24.9 min.

On to `O=C1CC(c2ccc(OC3OC(CO)C(O)C(O)C3O)cc2)Oc2cc(OC3OC(CO)C(O)C(O)C3O)ccc21` (configuration not stated), for which the LC retention time was 6.01 min.

With `COc1cc(O)c(-c2coc3cc(O)ccc3c2=O)c(OC)c1CC=C(C)C`, the LC retention time is 24.1 min.

`O=C1CC(c2ccc(OC3OC(CO)C(O)C(O)C3O)cc2)Oc2cc(O)ccc21` (configuration not stated): the LC retention time is 9.89 min.

As to `COc1ccc(-c2coc3cc(O)ccc3c2=O)cc1O`, the LC retention time is 15.1 min.

With `O=C1CC(c2ccc(O)cc2)Oc2cc(O)ccc21` (configuration not stated), the LC retention time is 14.6 min.

Turning to `CC1(C(=O)O)CCC2(C)CCC3(C)C(=CC(=O)C4C5(C)CCC(O)C(C)(C)C5CCC43C)C2C1` (configuration not stated), the LC retention time was 29.2 min.

`O=C1CC(c2ccc(O)cc2)Oc2cc(OC3OC(CO)C(O)C(O)C3O)ccc21` (configuration not stated): the LC retention time is 9.18 min.

The record behind these values is the RepoRT retention time repository.
